Legend:
Colinus virginianus = details: acute, oral, mortality
Typhlodromus pyri = test: LR50; higher = less toxic; details: not reported; mortality
Oncorhynchus mykiss = details: acute; duration: 96 hours; mortality
Rattus norvegicus = details: for LD50: acute, oral, mortality; for NOAEL: reproduction developmental, histopathology: nonneoplastic
Apis mellifera = details: acute, mortality
Oryctolagus sp. = details: developmental; development
Tagia sp. = details: acute; duration: 14 days; mortality

| SMILES | LD50 (Colinus virginianus; diet) | LD50 (Colinus virginianus) | LR50 (Typhlodromus pyri) | LC50 (Oncorhynchus mykiss) | LD50 (Rattus norvegicus) | NOAEL (Rattus norvegicus) | LD50 (Apis mellifera; dermal) | LD50 (Apis mellifera; oral, unspecified) | NOAEL (Oryctolagus sp.) | LC50 (Tagia sp.) |
| --- | --- | --- | --- | --- | --- | --- | --- | --- | --- | --- |
| C=C1C[C@]23C[C@@]1(O)CC[C@H]2[C@@]12C=C[C@H](O)[C@@](C)(C(=O)O1)[C@H]2[C@@H]3C(=O)O [Gibberellic acid] | > 1380 mg/kg-day | > 2250 mg/kg | – | – | – | – | – | – | – | – |
| C=C1C[C@]23C[C@H]1CC[C@H]2[C@@]12CC[C@H](O)[C@@](C)(C(=O)O1)[C@H]2[C@@H]3C(=O)O [Gibberellin A4] | – | – | > 40 g/ha | > 1.3 µg/mL | > 5000 mg/kg | 300 mg/kg-day | > 100 µg/piece | > 87 µg/piece | 300 mg/kg-day | > 1250 mg/kg |
| C=C1C[C@]23C[C@H]1CC[C@H]2[C@@]12C=C[C@H](O)[C@@](C)(C(=O)O1)[C@H]2[C@@H]3C(=O)O [Gibberellin A7] | – | – | > 40 g/ha | > 1.3 µg/mL | > 5000 mg/kg | 300 mg/kg-day | > 100 µg/piece | > 87 µg/piece | 300 mg/kg-day | > 1250 mg/kg |
